Key:
[1] = target: T1, recombinant human CYP11B2 (Homo sapiens, UniProt P19099); experiment: CYP11B2 enzyme assay, enzyme enriched microsomes from V79-4 cells, aldosterone by LC-MS; type: biochemical; conditions: IC50 ranges; run at Km of 11-deoxycorticosterone; read-out: hCYP11B2 IC50
T1 construct: made in house; host or cells: V79-4 cells (enzyme enriched microsomal fraction of cell lysates)
T1 sequence (P19099 25-503): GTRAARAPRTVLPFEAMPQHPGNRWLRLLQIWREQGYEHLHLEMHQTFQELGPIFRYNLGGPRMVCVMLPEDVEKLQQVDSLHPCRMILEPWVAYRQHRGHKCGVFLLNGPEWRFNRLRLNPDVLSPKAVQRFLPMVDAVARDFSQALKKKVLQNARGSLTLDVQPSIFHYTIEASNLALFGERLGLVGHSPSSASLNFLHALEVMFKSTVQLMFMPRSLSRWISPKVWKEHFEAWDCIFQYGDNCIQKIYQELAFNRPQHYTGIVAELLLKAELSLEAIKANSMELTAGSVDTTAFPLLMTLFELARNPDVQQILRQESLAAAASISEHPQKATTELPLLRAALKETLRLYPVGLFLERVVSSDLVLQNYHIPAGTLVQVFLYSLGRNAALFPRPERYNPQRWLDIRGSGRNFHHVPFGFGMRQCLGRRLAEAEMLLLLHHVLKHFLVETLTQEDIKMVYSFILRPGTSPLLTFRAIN
Procedure: (§1) An enzyme enriched microsomal fraction was prepared from cellular lysates and subsequently used as the enzyme source for determining inhibitor IC50s. […] Enzyme assays for inhibitor screening employed CYP11B2 and CYP11B1 enzyme enriched microsomes and were run at the Km of the respective substrates. Products of the enzyme reactions, aldosterone for CYP11B2 or cortisol for CYP11B1, were measured by LC-MS. Assays were run under conditions of less than 20% substrate turnover. Inhibitor IC50s were generated by determining the product formation in the absence or presence of inhibitor at various concentrations. In the absence of the test compound, the product formed (Pt) in each data set was defined as 100% activity. In the absence of enzyme, the product formed (Pb) in each data set was defined as 0% activity. The percent activity in the presence of each inhibitor was calculated according to the following equation: % activity=(P−Pb)/(Pt−Pb), where P=the product formed in the presence of the inhibitor.

[2] = target: T2, recombinant human CYP11B1 (Homo sapiens, UniProt P15538); experiment: CYP11B1 enzyme assay, enzyme enriched microsomes from V79-4 cells, cortisol by LC-MS; type: biochemical; conditions: IC50 ranges; run at Km of 11-deoxycortisol; read-out: hCYP11B1 IC50
T2 construct: made in house; host or cells: V79-4 cells (enzyme enriched microsomal fraction of cell lysates)
T2 sequence (P15538 25-503): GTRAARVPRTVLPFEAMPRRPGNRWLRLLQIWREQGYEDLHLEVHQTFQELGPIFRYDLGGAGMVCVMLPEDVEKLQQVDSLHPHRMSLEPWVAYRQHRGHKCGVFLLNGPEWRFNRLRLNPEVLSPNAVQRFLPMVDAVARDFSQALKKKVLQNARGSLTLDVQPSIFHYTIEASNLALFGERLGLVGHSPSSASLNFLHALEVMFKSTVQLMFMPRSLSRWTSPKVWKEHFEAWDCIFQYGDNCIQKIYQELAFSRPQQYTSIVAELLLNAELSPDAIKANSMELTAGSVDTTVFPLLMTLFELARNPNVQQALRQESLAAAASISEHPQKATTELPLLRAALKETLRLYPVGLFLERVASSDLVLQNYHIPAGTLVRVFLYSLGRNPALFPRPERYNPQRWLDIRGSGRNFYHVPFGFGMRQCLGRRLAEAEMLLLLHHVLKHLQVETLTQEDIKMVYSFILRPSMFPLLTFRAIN
Procedure: as §1

Structure (SMILES)	IC50 [1] [nM]	IC50 [2] [nM]
CCn1c(-c2cncnc2C(F)(F)F)nc2ccc(C#N)cc21 [Example 53, 2-(4-(trifluoromethyl)pyrimidin-5-yl)-1-ethyl-1H-benzo[d]imidazole-6-carbonitrile]	1 to 100	1000 to 10000
CCn1c(-c2cncnc2C(C)C)nc2ccc(C#N)cc21 [Example 41, 1-Ethyl-2-(4-isopropylpyrimidin-5-yl)-1H-benzo[d]imidazole-6-carbonitrile]	1 to 100	1000 to 10000
CCn1c(-c2cncnc2C(F)(F)F)nc2ccc(Cl)nc21 [Example 68, 5-Chloro-3-ethyl-2-(4-(trifluoromethyl)pyrimidin-5-yl)-3H-imidazo[4,5-b]pyridine]	100 to 1000	> 10000
Cc1ncnc(C)c1-c1nc2ccc(F)cc2n1C1CC1 [Example 29, 1-Cyclopropyl-2-(4,6-dimethylpyrimidin-5-yl)-6-fluoro-1H-benzo[d]imidazole]	> 10000	> 10000
Clc1ccc2nc(-c3cncnc3)n(C3CC3)c2c1 [Example 23, 6-Chloro-1-cyclopropyl-2-(pyrimidin-5-yl)-1H-benzo[d]imidazole]	1 to 100	1000 to 10000
COc1ccc2nc(-c3cncnc3)n(C3CC3)c2c1 [Example 25, 1-Cyclopropyl-6-methoxy-2-(pyrimidin-5-yl)-1H-benzo[d]imidazole]	100 to 1000	> 10000
Cc1ncncc1-c1nc2ccc(Cl)nc2n1C1CC1 [Example 48, 5-Chloro-3-cyclopropyl-2-(4-methylpyrimidin-5-yl)-3H-imidazo[4,5-b]pyridine]	1 to 100	1000 to 10000
FC(F)(F)c1ncncc1-c1nc2ccc(Cl)nc2n1C1CC1 [Example 61, 5-Chloro-3-cyclopropyl-2-(4-(trifluoromethyl)pyrimidin-5-yl)-3H-imidazo[4,5-b]pyridine]	1 to 100	1000 to 10000

Next, values leading:

IC50 [1] [nM]	IC50 [2] [nM]	Structure (SMILES)
1 to 100	1000 to 10000	CCc1ncncc1-c1nc2cc(F)c(F)cc2n1C1CC1 [Example 45, 1-Cyclopropyl-2-(4-ethylpyrimidin-5-yl)-5,6-difluoro-1H-benzo[d]imidazole]
1 to 100	1000 to 10000	CC(C)c1ncncc1-c1nc2ccc(F)cc2n1C1CC1 [Example 13, 1-Cyclopropyl-6-fluoro-2-(4-isopropylpyrimidin-5-yl)-1H-benzo[d]imidazole]
1 to 100	1000 to 10000	CCc1ncncc1-c1nc2ccc(Cl)cc2n1C1CC1 [Example 11, 6-Chloro-1-cyclopropyl-2-(4-ethylpyrimidin-5-yl)-1H-benzo[d]imidazole]
1 to 100	1000 to 10000	CN(C)c1ncncc1-c1nc2cc(F)c(F)cc2n1C1CC1 [Example 32, 5-(1-Cyclopropyl-5,6-difluoro-1H-benzo[d]imidazol-2-yl)-N,N-dimethylpyrimidin-4-amine]
1 to 100	100 to 1000	CC(C)c1ncncc1-c1nc2cc(F)c(F)cc2n1C1CC1 [Example 22, 1-Cyclopropyl-5,6-difluoro-2-(4-isopropylpyrimidin-5-yl)-1H-benzo[d]imidazole]
1 to 100	1000 to 10000	CCc1ncncc1-c1nc2ccc(F)c(F)c2n1C1CC1 [Example 17, 1-Cyclopropyl-2-(4-ethylpyrimidin-5-yl)-6,7-difluoro-1H-benzo[d]imidazole]
1 to 100	1000 to 10000	Fc1ccc2nc(-c3cncnc3Cl)n(C3CC3)c2c1 [Example 9, 2-(4-Chloropyrimidin-5-yl)-1-cyclopropyl-6-fluoro-1H-benzo[d]imidazole]
100 to 1000	> 10000	CC(C)(O)c1ncncc1-c1nc2ccc(C#N)cc2n1C1CC1 [Example 73, 1-Cyclopropyl-2-(4-(2-hydroxypropan-2-yl)pyrimidin-5-yl)-1H-benzo[d]imidazole-6-carbonitrile]
1 to 100	1000 to 10000	CC(F)(F)c1ncncc1-c1nc2ccc(C#N)cc2n1C1CC1 [Example 64, 1-Cyclopropyl-2-(4-(1,1-difluoroethyl)pyrimidin-5-yl)-1H-benzo[d]imidazole-6-carbonitrile]
